# Values quoted from earlier work in patent publication US11332491B2, “E-selectin antagonist compounds, compositions, and methods of use” (GLYCOMIMETICS, INC., priority 2011, dated 2022).
# Tested on: human AML engrafted in NODscid IL2Rgc-/- mice
# Settings: ASH 2011 abstracts
smiles,measurement,value
c1cc(CN2CCCNCCNCCCNCC2)ccc1CN1CCCNCCNCCCNCC1 [plerixafor],mobilization of human AML,approximately 2 fold
